ChEMBL document CHEMBL5338820, “Discovery and Design of Novel Cyclic Peptides as Specific Inhibitors Targeting CCN2 and Disrupting CCN2/EGFR Interaction for Kidney Fibrosis Treatment” (J Med Chem, 2023)
Activity calls are given as the source filed them. The rule behind the calls is not given here. Peptide text beside a SMILES is read from it.

What was measured:
CCN2-EGFR (Homo sapiens) [1] = molecular target: T1, CCN2-EGFR (Homo sapiens) (UniProt P00533+P29279); assay: Inhibition of His-tagged full length human CCN2 FL domain/human Fc-tagged EGFR protein-protein interaction using TMB as chromogenic substrate at 100 uM incubated for 140 mins by microplate reader assay relative to control
CCN2-EGFR (Homo sapiens) [2] = molecular target: T1, CCN2-EGFR (Homo sapiens); assay: Inhibition of His-tagged full length human CCN2 CT domain/human Fc-tagged EGFR protein-protein interaction using TMB as chromogenic substrate at 100 uM incubated for 140 mins by microplate reader assay relative to control
[3] = molecular target: T2, CCN family member 2 (Homo sapiens) (UniProt P29279); assay: Inhibition of recombinant human CCN2 CT domain expressed in human […] cells assessed as reduction in COL1A1 synthesis at 100 uM incubated for 24 hrs by Western blotting assay; assay type: cell-based
T2 sequence (whole entry): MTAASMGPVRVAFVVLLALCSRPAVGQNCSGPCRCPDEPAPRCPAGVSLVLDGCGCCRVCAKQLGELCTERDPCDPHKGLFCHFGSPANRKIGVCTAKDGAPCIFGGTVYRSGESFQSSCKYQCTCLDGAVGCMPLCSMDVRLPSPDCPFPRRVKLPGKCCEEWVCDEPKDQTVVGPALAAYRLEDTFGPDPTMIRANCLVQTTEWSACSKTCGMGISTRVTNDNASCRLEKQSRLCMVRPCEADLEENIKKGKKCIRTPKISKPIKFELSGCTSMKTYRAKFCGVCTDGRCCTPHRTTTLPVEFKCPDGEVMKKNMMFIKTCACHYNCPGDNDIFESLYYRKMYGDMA

[4] = molecular target: T2, CCN family member 2 (Homo sapiens); assay: Inhibition of recombinant human CCN2 CT domain expressed in human […] cells assessed as reduction in fibronectin synthesis at 100 uM incubated for 24 hrs by Western blotting assay; assay type: cell-based
[5] = molecular target: T2, CCN family member 2 (Homo sapiens); assay: Inhibition of recombinant human CCN2 FL domain expressed in human […] cells assessed as reduction in STAT3 phosphorylation at 100 uM incubated for 24 hrs by Western blotting assay; assay type: cell-based
Mus musculus [6] = assay: Antifibrotic activity against Unilateral ureteric obstruction ligation induced C57BL/6J mouse kidney fibrosis model assessed as downregulation of COL1A1 synthesis at 250 microg/kg,ip administrated for 14 days by Western blotting analysis; assay type: functional, organism-based; settings: dose 250.0 µg/kg, time 14.0 day
[7] = Toxicity in Unilateral ureteric obstruction C57BL/6J mouse model assessed as change in behaviour at 250 microg/kg,ip administrated for 14 days; settings: in vivo, 0.25 mg/kg, 336 h, dose 250 µg/kg, time 14 day
Mus musculus [8] = assay: Antifibrotic activity against Unilateral ureteric obstruction ligation induced C57BL/6J mouse kidney fibrosis model assessed as reduction of inflammatory infiltration at 250 microg/kg,ip administrated for 14 days by hematoxylin and eosin staining based analysis; assay type: functional, organism-based; settings: dose 250.0 µg/kg, time 14.0 day
Mus musculus [9] = assay: Antifibrotic activity against Unilateral ureteric obstruction ligation induced C57BL/6J mouse kidney fibrosis model assessed as downregulation of EGFR phosphorylation at 250 microg/kg,ip administrated for 14 days by Western blotting analysis; assay type: functional, organism-based; settings: dose 250.0 µg/kg, time 14.0 day
[10] = Toxicity in Unilateral ureteric obstruction C57BL/6J mouse model assessed as change in hair color at 250 microg/kg,ip administrated for 14 days; settings: in vivo, 0.25 mg/kg, 336 h, dose 250 µg/kg, time 14 day
[11] = Toxicity in Unilateral ureteric obstruction C57BL/6J mouse model assessed as change in body weight at 250 microg/kg,ip administrated for 14 days; settings: in vivo, 0.25 mg/kg, 336 h, dose 250 µg/kg, time 14 day
Mus musculus [12] = assay: Antifibrotic activity against Unilateral ureteric obstruction ligation induced C57BL/6J mouse kidney fibrosis model assessed as reduction of renal tubular injury at 250 microg/kg,ip administrated for 14 days by hematoxylin and eosin staining based analysis; assay type: functional, organism-based; settings: dose 250.0 µg/kg, time 14.0 day
Mus musculus [13] = assay: Antifibrotic activity against Unilateral ureteric obstruction ligation induced C57BL/6J mouse kidney fibrosis model assessed as downregulation of fibronectin synthesis at 250 microg/kg,ip administrated for 14 days by Western blotting analysis; assay type: functional, organism-based; settings: dose 250.0 µg/kg, time 14.0 day
CCN family member 2 = molecular target: T3, CCN family member 2 (Homo sapiens, UniProt P29279); assay: Binding affinity to His-tagged full length human CCN2 CT domain assessed as dissociation constant by isothermal titration calorimetry assay
T3 sequence (P29279 whole entry): T2 sequence (whole entry)

[14] = Toxicity in Unilateral ureteric obstruction C57BL/6J mouse model assessed as change in food consumption at 250 microg/kg,ip administrated for 14 days; settings: in vivo, 0.25 mg/kg, 336 h, dose 250 µg/kg, time 14 day
Mus musculus [15] = assay: Antifibrotic activity against Unilateral ureteric obstruction ligation induced C57BL/6J mouse kidney fibrosis model assessed as reduction of collagen formation at 250 microg/kg,ip administrated for 14 days by […] staining based analysis; assay type: functional, organism-based; settings: dose 250.0 µg/kg, time 14.0 day
Mus musculus [16] = assay: Antifibrotic activity against Unilateral ureteric obstruction ligation induced C57BL/6J mouse kidney fibrosis model assessed as downregulation of STAT3 phosphorylation at 250 microg/kg,ip administrated for 14 days by Western blotting analysis; assay type: functional, organism-based; settings: dose 250.0 µg/kg, time 14.0 day
[17] = molecular target: T2, CCN family member 2 (Homo sapiens); assay: Inhibition of recombinant human CCN2 CT domain expressed in human […] cells assessed as reduction in COL1A1 synthesis at 0.1 mg/ml incubated for 24 hrs by Western blotting assay; assay type: cell-based
[18] = molecular target: T2, CCN family member 2 (Homo sapiens); assay: Inhibition of recombinant human CCN2 CT domain expressed in human […] cells assessed as reduction in fibronectin synthesis at 0.1 mg/ml incubated for 24 hrs by Western blotting assay; assay type: cell-based
[19] = molecular target: T2, CCN family member 2 (Homo sapiens); assay: Inhibition of recombinant human CCN2 FL domain expressed in human HK-1 cells assessed as reduction in fibronectin synthesis at 0.1 mg/ml incubated for 24 hrs by Western blotting assay; assay type: cell-based
CCN2-EGFR (Homo sapiens) [20] = molecular target: T1, CCN2-EGFR (Homo sapiens); assay: Inhibition of His-tagged full length human CCN2 CT domain/human Fc-tagged EGFR protein-protein interaction using TMB as chromogenic substrate at 0.1 mg/ml incubated for 140 mins by microplate reader assay relative to control
CCN2-EGFR (Homo sapiens) [21] = molecular target: T1, CCN2-EGFR (Homo sapiens); assay: Inhibition of His-tagged full length human CCN2 FL domain/human Fc-tagged EGFR protein-protein interaction using TMB as chromogenic substrate at 0.1 mg/ml incubated for 140 mins by microplate reader assay relative to control
[22] = molecular target: T2, CCN family member 2 (Homo sapiens); assay: Inhibition of recombinant human CCN2 FL domain expressed in human […] cells assessed as reduction in COL1A1 synthesis at 0.1 mg/ml incubated for 24 hrs by Western blotting assay; assay type: cell-based

T1 sequence (P00533 whole entry, looked up, one chain of several, the tested form may be a part): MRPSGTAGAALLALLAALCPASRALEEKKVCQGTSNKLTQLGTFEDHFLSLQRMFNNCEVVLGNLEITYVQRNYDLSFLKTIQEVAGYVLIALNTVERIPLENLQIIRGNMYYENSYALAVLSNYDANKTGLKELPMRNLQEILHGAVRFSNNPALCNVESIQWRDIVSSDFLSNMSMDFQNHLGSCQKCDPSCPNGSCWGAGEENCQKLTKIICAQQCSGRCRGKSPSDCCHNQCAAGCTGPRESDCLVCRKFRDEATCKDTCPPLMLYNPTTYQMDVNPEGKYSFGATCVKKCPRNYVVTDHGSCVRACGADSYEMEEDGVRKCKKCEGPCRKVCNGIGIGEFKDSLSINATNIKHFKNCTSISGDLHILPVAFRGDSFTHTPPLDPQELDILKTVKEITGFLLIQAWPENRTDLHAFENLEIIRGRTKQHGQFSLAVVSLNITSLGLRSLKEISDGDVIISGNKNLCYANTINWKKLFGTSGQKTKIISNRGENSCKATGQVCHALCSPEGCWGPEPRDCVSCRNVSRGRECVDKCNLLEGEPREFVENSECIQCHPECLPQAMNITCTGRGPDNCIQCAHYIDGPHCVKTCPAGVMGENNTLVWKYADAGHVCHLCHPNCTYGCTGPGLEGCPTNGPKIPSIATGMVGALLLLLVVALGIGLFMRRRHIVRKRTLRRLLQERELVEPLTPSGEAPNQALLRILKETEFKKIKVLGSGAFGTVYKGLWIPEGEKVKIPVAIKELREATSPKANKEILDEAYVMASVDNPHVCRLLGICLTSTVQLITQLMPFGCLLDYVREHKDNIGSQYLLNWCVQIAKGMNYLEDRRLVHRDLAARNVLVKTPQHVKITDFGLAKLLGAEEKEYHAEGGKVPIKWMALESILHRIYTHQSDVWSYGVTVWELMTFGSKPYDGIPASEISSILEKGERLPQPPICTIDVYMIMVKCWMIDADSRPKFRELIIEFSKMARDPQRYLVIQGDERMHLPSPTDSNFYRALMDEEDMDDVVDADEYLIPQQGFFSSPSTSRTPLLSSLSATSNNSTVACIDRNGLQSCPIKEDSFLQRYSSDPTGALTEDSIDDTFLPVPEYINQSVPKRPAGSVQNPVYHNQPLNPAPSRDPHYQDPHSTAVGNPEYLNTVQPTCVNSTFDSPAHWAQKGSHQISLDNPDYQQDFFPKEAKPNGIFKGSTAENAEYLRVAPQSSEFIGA

| SMILES | inhibition (CCN2-EGFR (Homo sapiens) [1]) | inhibition (CCN2-EGFR (Homo sapiens) [2]) | inhibition [3] | inhibition [4] | further results |
| --- | --- | --- | --- | --- | --- |
| CC(C)C[C@H](N)C(=O)N[C@@H](C)C(=O)N[C@@H](CC(=O)O)C(=O)N[C@H](C(=O)N[C@H](C(=O)N[C@@H](Cc1c[nH]cn1)C(=O)N[C@@H](Cc1c[nH]cn1)C(=O)N[C@@H](CCCNC(=N)N)C(=O)N1CCC[C@H]1C(=O)N[C@@H](Cc1c[nH]c2ccccc12)C(=O)N[C@H](C(N)=O)[C@@H](C)O)[C@@H](C)O)[C@@H](C)O (H-LADTTHHRPWT-NH2) | 68.8% | 67.4% | Active | Active |  |
| C[C@@H](O)[C@H](N)C(=O)N[C@H](C(=O)N[C@@H](Cc1c[nH]cn1)C(=O)N[C@@H](Cc1c[nH]cn1)C(=O)N[C@@H](CCCNC(=N)N)C(=O)N1CCC[C@H]1C(=O)N[C@@H](Cc1c[nH]c2ccccc12)C(=O)N[C@H](C(N)=O)[C@@H](C)O)[C@@H](C)O (H-TTHHRPWT-NH2) | 68.1% | 60% | Active | Active |  |
| C[C@@H](O)[C@H](N)C(=O)N[C@@H](Cc1c[nH]cn1)C(=O)N[C@@H](Cc1c[nH]cn1)C(=O)N[C@@H](CCCNC(=N)N)C(=O)N[C@@H](CCCCN)C(=O)N[C@@H](Cc1c[nH]c2ccccc12)C(=O)N[C@H](C(N)=O)[C@@H](C)O (H-THHRKWT-NH2) | 15% | 11% | inactive | inactive |  |
| C[C@@H](O)[C@H](N)C(=O)N[C@@H](Cc1c[nH]cn1)C(=O)N[C@@H](Cc1c[nH]cn1)C(=O)N[C@@H](CCCCN)C(=O)N1CCC[C@H]1C(=O)N[C@@H](Cc1c[nH]c2ccccc12)C(=O)N[C@H](C(N)=O)[C@@H](C)O (H-THHKPWT-NH2) | 14.4% | 65.8% | inactive | inactive |  |
| CC(C)C[C@H](NC(=O)[C@@H](N)CC(C)C)C(=O)N[C@@H](C)C(=O)N[C@@H](CC(=O)O)C(=O)N[C@H](C(=O)N[C@H](C(=O)N[C@@H](Cc1c[nH]cn1)C(=O)N[C@@H](Cc1c[nH]cn1)C(=O)N[C@@H](CCCNC(=N)N)C(=O)N1CCC[C@H]1C(=O)N[C@@H](Cc1c[nH]c2ccccc12)C(=O)N[C@H](C(N)=O)[C@@H](C)O)[C@@H](C)O)[C@@H](C)O (H-LLADTTHHRPWT-NH2) |  |  |  |  | inhibition [17]: Active; inhibition [18]: Active; inhibition [19]: Active; inhibition (CCN2-EGFR (Homo sapiens) [20]): 71.4%; inhibition (CCN2-EGFR (Homo sapiens) [21]): 39.5%; inhibition [22]: Active |
| C[C@@H](O)[C@H](NC(=O)[C@H](Cc1c[nH]c2ccccc12)NC(=O)[C@@H]1CCCN1C(=O)[C@H](CCCNC(=N)N)NC(=O)[C@H](Cc1c[nH]cn1)NC(=O)[C@H](Cc1c[nH]cn1)NC(=O)[C@@H](NC(=O)[C@@H](NC(=O)[C@@H](N)CC(=O)O)[C@@H](C)O)[C@@H](C)O)C(N)=O (H-DTTHHRPWT-NH2) | 63.7% | 65.8% | Active | Active |  |

Further lines, with some results ahead:

| inhibition (CCN2-EGFR (Homo sapiens) [1]) | inhibition (CCN2-EGFR (Homo sapiens) [2]) | inhibition [3] | inhibition [4] | SMILES | further results |
| --- | --- | --- | --- | --- | --- |
| 59.7% | 63.4% | Active | Active | C[C@@H](O)[C@H](N)C(=O)N[C@@H](Cc1c[nH]cn1)C(=O)N[C@@H](CCCCN)C(=O)N[C@@H](CCCNC(=N)N)C(=O)N1CCC[C@H]1C(=O)N[C@@H](Cc1c[nH]c2ccccc12)C(=O)N[C@H](C(N)=O)[C@@H](C)O (H-THKRPWT-NH2) |  |
| 70.6% | 61.9% | Active | Active | C[C@H](N)C(=O)N[C@@H](CC(=O)O)C(=O)N[C@H](C(=O)N[C@H](C(=O)N[C@@H](Cc1c[nH]cn1)C(=O)N[C@@H](Cc1c[nH]cn1)C(=O)N[C@@H](CCCNC(=N)N)C(=O)N1CCC[C@H]1C(=O)N[C@@H](Cc1c[nH]c2ccccc12)C(=O)N[C@H](C(N)=O)[C@@H](C)O)[C@@H](C)O)[C@@H](C)O (H-ADTTHHRPWT-NH2) |  |
| 62.3% | 78.7% | Active | Active | C[C@@H](O)[C@H](N)C(=O)N[C@@H](CCCCN)C(=O)N[C@@H](Cc1c[nH]cn1)C(=O)N[C@@H](CCCNC(=N)N)C(=O)N1CCC[C@H]1C(=O)N[C@@H](Cc1c[nH]c2ccccc12)C(=O)N[C@H](C(N)=O)[C@@H](C)O (H-TKHRPWT-NH2) | inhibition [5]: Active; Activity (Mus musculus [6]): Active; Activity [7]: Non-Toxic; Activity (Mus musculus [8]): Active; Activity (Mus musculus [9]): Active; Activity [10]: Non-Toxic; Activity [11]: Non-Toxic; Activity (Mus musculus [12]): Active; Activity (Mus musculus [13]): Active; Kd (CCN family member 2): 3.9 µM; Activity [14]: Non-Toxic; Activity (Mus musculus [15]): Active; Activity (Mus musculus [16]): Active |
| 16% | 9.4% | inactive | inactive | C[C@@H](O)[C@H](NC(=O)[C@H](Cc1c[nH]c2ccccc12)NC(=O)[C@@H]1CCCN1C(=O)[C@H](CCCNC(=N)N)NC(=O)[C@H](Cc1c[nH]cn1)NC(=O)[C@@H](N)Cc1c[nH]cn1)C(N)=O (H-HHRPWT-NH2) |  |
| 13.9% | 7.9% | inactive | inactive | C[C@@H](O)[C@H](NC(=O)[C@H](Cc1c[nH]c2ccccc12)NC(=O)[C@@H]1CCCN1C(=O)[C@H](CCCNC(=N)N)NC(=O)[C@@H](N)Cc1c[nH]cn1)C(N)=O (H-HRPWT-NH2) |  |
